Results from PubChem BioAssay (NCI).
Several values for one entry are separate records, joined by “and”; a condition that tells them apart may be missing. Identical values can stand only once.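 Results reflect a 48-hour exposure of cells in 96-well plates to compound at five concentrations. GI50 = concentration required for 50% inhibition of growth. At the TGI there is no net growth.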

System: MDA-MB-468 breast
Assay: NCI anticancer screen, dose series, 48 h

Row | Compound | TGI | GI50
1 | CCOC(=O)C(Cc1c[nH]c2c(N(CCO)CCO)cccc12)(NC(C)=O)C(=O)OCC | 132 µM | –
2 | CS(=O)(=O)CCNCc1cc(-c2cc3c(Nc4ccc(OCc5cccc(F)c5)c(Cl)c4)ncnc3s2)cs1 | 4.13 µM | 569 nM
3 | CC[C@H](Nc1ncnc2nc[nH]c12)c1nc2cccc(F)c2c(=O)n1-c1ccccc1 | 10.4 µM | 2100 nM
4 | CC(=O)Oc1ccc(C23c4ccccc4C2(OC(C)=O)c2cc(OC(C)=O)ccc23)cc1 (centres undefined) | 5.02 µM | 570 nM
5 | COc1ccc(/C=C/C(=O)/C=C/c2cc3ccccc3[nH]c2=O)cc1 | 6.59 µM | 2320 nM
6 | O=C(/C=C/C12c3ccccc3C(c3ccccc31)C1C(=O)NC(=O)C12)c1ccc(Cl)cc1Cl (centres undefined) | 4.13 µM | 1960 nM
7 | O=[N+]([O-])c1cc(Cl)c2[nH]c3c(Cl)cc([N+](=O)[O-])cc3c2c1 | 2.26 µM | 169 nM
8 | O=S(=O)(NCCNc1nccc(-c2c(-c3ccc(F)c(O)c3)nc3sccn23)n1)c1ccc(F)cc1 | 25.5 µM | 2970 nM
9 | CC(C)Nc1cc(-c2c[nH]c(C(=O)N[C@H](CO)c3cccc(Cl)c3)c2)c(Cl)cn1 | 18.3 µM and > 10 µM | 3540 nM and 5120 nM
10 | CC(=O)c1ccc2c(c1)C1C=CCC1[C@H](c1cc3c(cc1Br)OCO3)N2 (some centres undefined) | – | 308 nM
11 | COc1ccc(-c2cs/c(=N\N=C\c3ccc(O)cc3O)n2/N=C/c2ccc(O)cc2O)cc1 | 5.68 µM | 1960 nM
12 | CCCCCCCCOC(=O)CC[C@@H](C)[C@H]1CC[C@H]2[C@@H]3[C@H](OC(=O)CCN)C[C@@H]4C[C@H](OC(=O)CCN)CC[C@]4(C)[C@H]3C[C@H](OC(=O)CCN)[C@]12C | 7.17 µM | 2490 nM
13 | CCOC(=O)Nc1nc2ccc(OC)cc2s1 | > 100 µM | 69400 nM
